Laboratory results as given in paper PMC9953746, “Dimeric Benzodiazepines as Peptide Mimetics to Overcome p53-Dependent Drug Resistance of Tumors” (Biomolecules, 2023).
Where two headings read alike, the source gives them in different places. Marks after values point to notes of the source that are not given here.

What was measured:
[1] = test system: epidermoid carcinoma A-431; experiment: MTT cell viability assay, A-431; assay type: cell-based, human; conditions: for IC50: read-out: IC50 A-431 (epidermoid cancer); for SI index: IC50 BJ/IC50 A-431: selectivity index, normal skin BJ vs A-431
Source text: (§1) The following cell lines were used in this study: epidermoid carcinoma A-431 (ATCC® CRL-1555), lung carcinomas A549 (ATCC® CCL-185) and NCI-H1299 (ATCC® CRL-5803), colorectal carcinomas HCT116 (ATCC® CCL-247) and HCT116p53^−/−, normal skin fibroblasts BJ (ATCC® CRL-2522), and normal lung fibroblasts MRC-5 (ATCC® CCL-171). The HCT116 p53^−/− cell line was a kind gift from Professor Bert Vogelstein (John Hopkin’s University, Baltimore, MD, USA). The remaining cell lines were purchased from ATCC (Manassas, VA, USA). The cells were cultured in minimal, Dulbecco’s modified Eagle’s, or Ham’s F-12K medium supplemented with 10% fetal bovine serum (Gibco by Thermo Fisher Scientific, Waltham, MA, USA) and grown under standard culture conditions (37°C, 5% CO2) in a humidified incubator with an oxygen concentration of 21%. All of the experiments were performed with mycoplasma-free cells.
(§2) The viability of the cells was assayed by measuring the conversion of MTT (3-(4,5-dimethylthiazol-2-yl)-2,5-diphenyltetrazolium bromide) to formazan (the rate of this reaction is proportional to the number of surviving cells). The cells were seeded in 96-well culture plates at a density of 3500–5000 cells per well 24 h before the treatment. Six wells were considered for each experimental point (technical repeats). Treatments with increasing concentrations of 10, 11, or cisplatin (0.6–80 μM) were performed for 72 h. The MTT stock solution (Sigma-Aldrich by Merck, Darmstadt, Germany) was added at a final concentration of 0.5 mg/mL. After 4 h of incubation at 37 °C, the water-insoluble formazan was dissolved in a lysis buffer containing 20% SDS, 50% DMF, 2.5% hydrochloric acid, and 2.5% acetic acid. The optical densities were measured at 570 nm using a scanning multi-well spectrophotometer (PARADIGM Detection Platform; Beckman Coulter, Brea, CA, USA). The ratio of the absorbance value of each tested group to the absorbance value of the untreated control was calculated, and each tested group’s cell viability was expressed as a percentage of the control. The cell viability assays were performed at least in triplicate using independent cell cultures.

[2] = test system: colorectal carcinoma HCT116; experiment: MTT cell viability assay, HCT116; assay type: cell-based, human; conditions: read-out: IC50 HCT116 (colon cancer)
Source text: as §1
as §2, with “The cell viability assays were performed at least in triplicate using independent cell cultures.” left out

[3] = test system: normal skin fibroblasts BJ; experiment: MTT cell viability assay, BJ; assay type: cell-based, human; conditions: 72 h, read-out: IC50 BJ (normal skin)
Source text: as §1
as §2, with “The cell viability assays were performed at least in triplicate using independent cell cultures.” left out

[4] = test system: normal lung fibroblasts MRC-5; experiment: MTT cell viability assay, MRC-5; assay type: cell-based, human; conditions: read-out: IC50 MRC-5 (normal lung)
Source text: as §1, §2

[5] = test system: HCT116 p53^−/− cells; experiment: IncuCyte live-cell imaging, cell proliferation and death assay, HCT116p53-/-; assay type: cell-based, human; conditions: 40 µM; for confluence, HCT116p53^−/−: up to 72 h, untreated 88%, DMSO 83% on the third day; for time at which cell death starts to increase significantly, HCT116p53^−/−: SYTOX Green Dead Cell Stain
Source text: (§3) The cell proliferation and death were estimated in the IncuCyte S3 live-cell imaging system using the SYTOX™ Green Dead Cell Stain (Thermo, cat. no: S34860) and analyzed using the IncuCyte 2019B Rev2 software (Essen BioScience, Ann Arbor, MI, USA), according to the manufacturer’s instructions (https://www.sartorius.com/en/products/live-cell-imaging-analysis/live-cell-analysis-resources/live-cell-imaging-and-analsis-handbook (accessed on 21 October 2022)). The HCT116 and HCT116 p53^−/− cells were seeded in 96-well culture plates at a density of 5000 cells per well 24 h before the treatment. Four wells were considered for each experimental point. Treatments with 10, 11, cisplatin (40 μM), or dimethyl sulfoxide (which was used as a negative control at a concentration equal to the one used to dissolve 10 and 11) were carried out for up to 72 h, and images were recorded every 2 h during this time. The experiment was performed twice.

[6] = test system: HCT116 cells; experiment: IncuCyte live-cell imaging, cell proliferation and death assay, HCT116; assay type: cell-based, human; conditions: 40 µM; for time at which cell death starts to increase significantly, HCT116: SYTOX Green Dead Cell Stain; for confluence, HCT116: up to 72 h, untreated 90%, DMSO 84% on the third day
Source text: as §3

[7] = test system: lung carcinoma NCI-H1299; experiment: MTT cell viability assay, NCI-H1299; assay type: cell-based, human; conditions: for IC50: read-out: IC50 NCI-H1299 (lung cancer)
Source text: as §1, §2

[8] = test system: lung carcinoma A549; experiment: MTT cell viability assay, A549; assay type: cell-based, human; conditions: for IC50: read-out: IC50 A549 (lung cancer)
Source text: as §1, §2

[9] = test system: colorectal carcinoma HCT116p53^−/−; experiment: MTT cell viability assay, HCT116p53-/-; assay type: cell-based, human; conditions: for IC50: 72 h, read-out: IC50 HCT116p53^−/− (colon cancer); for SI index: IC50 HCT116p53^−/−/IC50 HCT116: ratio of p53 knockout to wild-type HCT116
Source text: as §1, §2

[10] = test system: solid tumors; set-up: method as in PMID 4959850; conditions: cited from earlier work
[11] = test system: Heps (liver cancer) cell line; set-up: method as in earlier work; conditions: cited from earlier work
[12] = test system: Sarcoma 180; set-up: method as in earlier work; conditions: cited from earlier work
[13] = test system: MDA-MB-435; set-up: method as in PMID 26594756, PMID 32095421; conditions: in vitro; cited from earlier work
[14] = test system: Calu-3; set-up: method as in PMID 26594756, PMID 32095421; conditions: in vitro; cited from earlier work
[15] = test system: HepG2; set-up: method as in PMID 26594756, PMID 32095421; conditions: in vitro; cited from earlier work
[16] = test system: normal IKHE cell line; set-up: method as in PMID 26594756, PMID 32095421; conditions: in vitro; cited from earlier work
[17] = test system: HCT-116; set-up: method as in PMID 26594756, PMID 32095421; conditions: in vitro; cited from earlier work
[18] = ratio of IC50 values vs cisplatin

For `N.N.[Cl][Pt][Cl]` [Cisplatin, cisplatin, reference compound], the IC50 ([1]; MTT, 72 h, mean ± SD, n = 3) was 1.56 ± 0.29 µM, the “SI index: IC50 BJ/IC50 A-431” value [1] was 3.26 ± 0.41 (**) ^c and the “SI index: IC50 BJ/IC50 A-431” value ([1]; listed as cisplatin) was 3.26 ± 0.41. For the same compound, the IC50 ([2]; MTT, 72 h, mean ± SD, n = 3) was 3.51 ± 1.16 µM, the IC50 ([3]; MTT, mean ± SD, n = 3) was 5.06 ± 0.94 µM and the IC50 ([4]; MTT, 72 h, mean ± SD, n = 3) was 4.17 ± 0.88 µM. For the same compound, the “time to plateau of cell death, HCT116p53^−/−” value [5] was “about 72 h”, the “cell death level (SYTOX Green positive cells) at plateau, HCT116p53^−/−” value ([5]; after about 72 h) was 5116.3 ± 211.41 and the “confluence, HCT116p53^−/−” value [5] was “up to 16%”. For the same compound, the “time of highest number of SYTOX Green positive cells, HCT116” value [6] was 48 h, the “time at which cell death starts to increase significantly, HCT116” value [6] was 18 h and the “confluence, HCT116” value [6] was “up to 16%”. It also gave an IC50 ([7]; MTT, 72 h, mean ± SD, n = 3) of 5.7 ± 0.88 µM, an IC50 ([8]; MTT, 72 h, mean ± SD, n = 3) of 5.95 ± 1.28 µM and an IC50 ([9]; MTT, mean ± SD, n = 3) of 10.8 ± 2.86 µM. The “SI index: IC50 HCT116p53^−/−/IC50 HCT116” value [9] was 3.18 ± 0.79 (*) ^c.
In the case of `Cc1ccc2c(c1O)NC(O)C1CC(/C=C/C(N)=O)=CN1C2=O` (centres unmarked) [Anthramycin, anthramycin], the “growth of solid tumors in mice” value [10] is given as “inhibited the growth of solid tumors in mice”.
In the case of `CN1c2ccccc2C(=O)n2c3ccccc3c3ccnc1c32` [evodiagenine], the “cytotoxic activity against Heps (liver cancer)” value [11] is listed as “exhibits cytotoxic activity” and the “cytotoxic activity against Sarcoma 180” value [12] is listed as “exhibits cytotoxic activity”.
In the case of `N#CCC[C@H]1NC(=O)c2ccccc2-n2c1nc1ccccc1c2=O` [auranthine], the “cytotoxic activity against MDA-MB-435” value [13] is listed as “no cytotoxic activities”, the “cytotoxic activity against Calu-3” value [14] is listed as “no cytotoxic activities” and the “cytotoxic activity against HepG2” value [15] is listed as “no cytotoxic activities”. For the same compound, the “cytotoxic activity against normal IKHE” value [16] was “no cytotoxic activities” and the “cytotoxic activity against HCT-116” value [17] was “no cytotoxic activities”.
Compound `O=C1NC(CSCSCC2NC(=O)c3ccc([N+](=O)[O-])cc3NC2=O)C(=O)Nc2cc([N+](=O)[O-])ccc21` (centres unmarked) [Compound 11, 3,3′-((methylenebis(sulfanediyl))bis(methylene))bis(8-nitro-3,4-dihydro-1H-benzo[e][1,4]diazepine-2,5-dione)] has an IC50 ([1]; Homo sapiens, A-431, 72 h) of 3.97 ± 0.87 µM, an IC50 ([2]; Homo sapiens, HCT-116, 72 h) of 4.9 ± 0.53 µM and an IC50 ([3]; Homo sapiens, Skin fibroblast) of 23.1 ± 2.34 µM. The IC50 ([4]; Homo sapiens, MRC5, 72 h) was 28.7 ± 7.6 µM, the “time at which cell death starts to increase significantly, HCT116p53^−/−” value [5] was 36 h and the “confluence, HCT116p53^−/−” value [5] was “up to 16%”. The “time at which cell death starts to increase significantly, HCT116” value [6] was 36 h, the “confluence, HCT116” value [6] was “up to 16%” and the IC50 ([7]; Homo sapiens, NCI-H1299, 72 h) was 4.91 ± 1.45 µM. The IC50 ([8]; Homo sapiens, A549, 72 h) was 16.3 ± 4.65 µM, the “SI index: IC50 MRC-5/IC50 A549” value ([8]; selectivity index, normal lung MRC-5 vs A549) was 1.86 ± 0.79 (ns) ^c (ns) ^b and the IC50 ([9]; Homo sapiens) was 6.07 ± 0.9 µM. The “SI index: IC50 HCT116p53^−/−/IC50 HCT116” value [9] was 1.26 ± 0.3 (ns) ^c (*) ^b.
In the case of `O=C1NC(CSCSCC2NC(=O)c3cc([N+](=O)[O-])ccc3NC2=O)C(=O)Nc2ccc([N+](=O)[O-])cc21` (centres unmarked) [Compound 10, 3,3′-((methylenebis(sulfanediyl))bis(methylene))bis(7-nitro-3,4-dihydro-1H-benzo[e][1,4]diazepine-2,5-dione)], the IC50 ([1]; Homo sapiens, A-431, MTT, 72 h, mean ± SD, n = 3) is reported as 3.47 ± 0.32 µM, the “SI index: IC50 BJ/IC50 A-431” value [1] is reported as 4.88 ± 1.08 (**) ^c (ns) ^b and the IC50 ([2]; Homo sapiens, HCT-116, MTT, 72 h, mean ± SD, n = 3) is reported as 5.31 ± 0.23 µM. The IC50 ([3]; Homo sapiens, Skin fibroblast, MTT, mean ± SD, n = 3) was 16.7 ± 2.77 µM, the IC50 ([4]; Homo sapiens, MRC5, 72 h, MTT, 72 h, mean ± SD, n = 3) was 16.9 ± 2.96 µM and the IC50 ([4]; MTT, 72 h, mean ± SD, n = 3) was 16.9 ± 2.96 µM. The “time at which cell death starts to increase significantly, HCT116p53^−/−” value [5] was 24 h, the “confluence, HCT116p53^−/−” value [5] was “up to 16%” and the “time at which cell death starts to increase significantly, HCT116” value [6] was 24 h. The “confluence, HCT116” value [6] was “up to 16%”, the IC50 ([7]; Homo sapiens, NCI-H1299, MTT, 72 h, mean ± SD, n = 3) was 1.07 ± 0.25 µM and the “times more cytotoxic than cisplatin, NCI-H1299” value [7, 18] was 5.33 times. The IC50 ([8]; Homo sapiens, A549, MTT, 72 h, mean ± SD, n = 3) was 1.6 ± 0.21 µM, the “times more cytotoxic than cisplatin, A549” value [8, 18] was 3.72 times and the IC50 ([9]; Homo sapiens, MTT, mean ± SD, n = 3) was 5.56 ± 0.74 µM. For the same compound, the “SI index: IC50 HCT116p53^−/−/IC50 HCT116” value [9] was 1.05 ± 0.19 (ns) ^c (*) ^b.
